In US10800814B2, “Cyclic peptidomimetics, compositions containing them and their use in the treatment of diseases associated with angiogenesis” (priority 2015, dated 2020):
Positions of bridges follow the written chain, without caps; N, C: chain ends. Residues, ends and D or L forms follow the SMILES beside them. Chains are numbered I, II in the order given. No end group written: not given here.

Target: T1, VEGF165/NRP-1 (Rattus norvegicus, UniProt Q9QWJ9)
T1 construct: purchased R&D Systems
T1 sequence (Q9QWJ9 22-854 limits assumed): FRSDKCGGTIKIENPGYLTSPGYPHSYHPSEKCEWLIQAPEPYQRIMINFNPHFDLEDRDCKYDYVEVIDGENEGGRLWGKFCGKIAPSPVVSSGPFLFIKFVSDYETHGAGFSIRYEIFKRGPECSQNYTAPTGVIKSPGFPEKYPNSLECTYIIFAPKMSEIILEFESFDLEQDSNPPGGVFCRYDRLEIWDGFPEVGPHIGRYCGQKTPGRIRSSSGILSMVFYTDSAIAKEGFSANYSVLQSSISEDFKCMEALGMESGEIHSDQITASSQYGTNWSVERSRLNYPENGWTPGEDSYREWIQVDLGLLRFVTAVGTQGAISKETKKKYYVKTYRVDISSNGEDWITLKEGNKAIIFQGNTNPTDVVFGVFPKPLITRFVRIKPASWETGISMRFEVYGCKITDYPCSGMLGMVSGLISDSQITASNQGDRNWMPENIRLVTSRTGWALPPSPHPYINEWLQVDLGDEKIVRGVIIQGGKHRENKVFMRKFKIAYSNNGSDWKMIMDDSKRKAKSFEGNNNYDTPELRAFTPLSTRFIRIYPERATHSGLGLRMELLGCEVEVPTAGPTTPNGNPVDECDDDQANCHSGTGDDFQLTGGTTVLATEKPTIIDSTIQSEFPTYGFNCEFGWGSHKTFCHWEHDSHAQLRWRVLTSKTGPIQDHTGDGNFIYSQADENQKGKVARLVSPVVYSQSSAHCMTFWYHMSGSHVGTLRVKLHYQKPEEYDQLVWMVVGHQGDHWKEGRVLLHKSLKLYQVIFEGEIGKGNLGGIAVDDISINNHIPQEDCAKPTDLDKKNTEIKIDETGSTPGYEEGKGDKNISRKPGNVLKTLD
Test: biochemical
Type: binding
Settings: for IC50: VEGF165/NRP-1 binding inhibition
Description: Selected compounds were tested in vitro by measuring the inhibition binding of VEGF165 to NRP-1. This assay allows the determination of percentage inhibition of the tested compound at a predetermined concentration. Determination of the Inhibitory Activity of the Tested Compounds. The evaluation of the inhibitory effect of peptidomimetics was performed using an enzymatic method denoting the spectrophotometric displacement of the VEGF165 ligand from the specific receptor by the evaluated compound. The studies were performed using polystyrene 96-well plates (Maxisorb, Nunc.). The Procedure for Determining the Inhibition of VEGF165/NRP-1. To evaluate the biological inhibitory activity of selected molecules in each well of flat bottom polystyrene plate of 96-wells (Maxisorb, Nunc,) a 100 μl of a solution containing 2 μg/ml of anti-Fc IgG (Sigma-Aldrich) dissolved in a phosphate buffer PBS (PBS, Sigma) was placed. The plate was allowed to stand overnight at 4° C. The next day, wells were washed three times with 100 μl PBS, and then saturated with 2% bovine serum albumin (BSA, Sigma) in PBS in order to eliminate non-specific interactions. After 2 hours of incubation at 37° C. the following solutions were added portionwise: 50 μl of purified recombinant rat NRP1-Fc (R&D Systems, Abingdon, UK) in a solution of 20 ng/well protein dissolved in PBS-BSA 0.1% tween-80 0.005% (PBT), 50 μl of compound solution in PBT in an appropriate concentration […] The total volume of added solution was 150 μl. After an overnight incubation at 4° C., the wells were washed with PBT and treated with streptavidin-HRP polymer (horseradish peroxidase, Sigma). The plate was incubated for 1 hour at room temperature. […] After 2 hours, the absorbance was measured at wavelength of 415 nm with respect to 470 nm. […] In the control wells the tested compound was absent, but the respective concentration of DMSO was maintained. The heptapeptide A7R (ATWLPPR (SEQ ID NO:1)) was used as a positive control on every 96-well plate.

Compound | IC50 | decrease in inhibition with decreasing concentration (reduction of concentrations of 10-0.3 μM)
N=C(N)NCCCC(NC(=O)C1CCC(=O)NC(CCCCN)C(=O)N2CCCC2C(=O)NC(C(=O)NC(CCCNC(=N)N)C(=O)O)CCC(=O)NC(CCCCN)C(=O)N2CCCC2C(=O)N1)C(=O)O (stereo not drawn) [(c[Lys-Pro-Glu]-Arg-OH)2] (I: KPER-OH / II: KPER-OH; amide I:3-II:N, I:N-II:3; configuration not given here) | 460 nM | 
N=C(N)NCCCC(NC(=O)C1CCC(=O)NCCCCC(N)C(=O)N2CCCC2C(=O)N1)C(=O)O (stereo not drawn) [H-c[Lys-Pro-Glu]-Arg-OH] (H-KPER-OH; lactam 1-3; configuration not given here) | 180 nM | 
ATWLPPR [A7R, ATWLPPR, reference compound] |  | 5 fold
